Laboratory results from patent US20190083521A1, “COMBINATION THERAPY FOR TREATING CANCER” (Epizyme, Inc., priority 2014, published 2019).
Read-outs that look alike come from different tables or passages of the source.

Experiments:
MOLM-13 (MLL-AF9) cells [1] = assay: Combination proliferation assay with Compound A2 (CellTiter-Glo, Chou-Talalay CI); type: cell-based, human
In short: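 Viability by CellTiter-Glo ATP luminescence; fraction affected versus DMSO controls, combination index by Chou-Talalay (CI <1 synergy, >1 antagonism).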

MV4-11 (MLL-AF4) cells = assay: as above; type: cell-based, human
In short: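 Viability by CellTiter-Glo ATP luminescence; fraction affected versus DMSO controls; combination index by Chou-Talalay method (CI <1 synergy, >1 antagonism).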

[2] = tested on: SKM-1 (non-MLL-rearranged AML) cells; assay: as above; type: cell-based, human
Experimental: (§1) Graphs representing values of combination index (CI) versus Fractional effect (Fa) known as Fa-CI plots were generated and synergy was evaluated.
(§2) Viability was determined using CellTiter-Glo® (Promega).
MV4-11 cells were maintained in IMDM supplemented with 10% fetal bovine serum. MOLM-13 and SKM-1 cells were maintained in Roswell Park Memorial Institute medium (RPMI) supplemented with 10% fetal bovine serum. They were cultured in flasks or plates in a humidified 5% CO2 atmosphere.
Proliferation studies were performed using MOLM-13, MV4-11 and SKM-1 cell lines in vitro to evaluate the cancer cell killing effect of a combination of two agents together on cell growth. Initial proliferation studies were performed to determine the IC50 values of a given compound in each cell line. The cell counts were measured by ATP quantitation using the Promega Cell Titer Glo kit and luminescence values correspond to the amount of ATP in a given well.
Compounds evaluated for synergy in the co-treatment phase were tested in a range which was bracketed around the IC50's. The compounds were plated to a 96 well plate in a matrix format which includes increasing concentrations of each drug in the combination in a constant ratio, in addition to the effect of each compound alone in the study. Cells were seeded and grown in the log-linear phase for 3 or 7 days in the cotreatment phase. Maximum and minimum inhibition (DMSO alone) controls were used in each plate to calculate fraction affected (Fa) of a test well. DMSO concentration was kept at 0.1% v/v. The drug combination analysis was performed utilizing the Chou-Talalay method. Synergy was determined using the software package Calcusyn by Biosoft. The combination index (CI) is the term used to describe the level of synergy or antagonism in a given test system. A combination index less than one indicates synergy, and a CI greater than one indicates antagonism.
The drug combination analysis was performed using the Chou-Talalay method. Graphs representing values of combination index (CI) versus Fractional effect (Fa) known as Fa-CI plots were generated and synergy was evaluated.

EOL-1 (MLL-PTD) cells = assay: Combination proliferation assay with Compound A2 (Chou-Talalay CI); type: cell-based, human
Experimental: as §1, §2

KOPM-88 (MLL-PTD) cells = assay: as above; type: cell-based, human
Experimental: as §1, §2

SKM-1 cells = assay: Example 6 combination screen: 300 nM EPZ-5676 pre-treatment, second compound 72 h, ATPLite, IC50 shift; type: cell-based, human; conditions: SKM-1 cells; 300 nM EPZ-5676 pre-treatment (4 + 3 days) vs DMSO, then 2nd compound 72 h; ATPLite; IC50 shift of 2nd compound
Experimental: Cells were then equilibrated in incubators for 24 hours before treatment with a second compound. Treated assay plates were incubated with a second compound for 72 hours. After this time, plates were developed for endpoint analysis using ATPLite to measure ATP content, which is used as an indicator of cell viability.
“N/D” means that IC50 of the second compound could not be determined for both conditions.

MOLM-13 (MLL-AF9) cells [3] = assay: Example 7 primary screen: 300 nM EPZ-5676 pre-treatment, second compound 72 h, ATPLite, GI100 shift; type: cell-based, human; conditions: MOLM-13 (MLL-AF9); 300 nM EPZ-5676 pre-treatment vs DMSO
Experimental: (§3) Cells were split using EPZ-5676 or DMSO containing growth media and further incubated for an additional 3-day pre-treatment time. Cells were finally seeded in growth media containing EPZ-5676 or DMSO in 384-well plates at 500 cell/well density. Cells were then equilibrated in incubators for 24 hours before treatment with a second compound. Treated assay plates were incubated with a second compound for 72 hours. After this time, plates were developed for endpoint analysis using ATPLite to measure ATP content, which is used as an indicator of cell viability.
(§4) “N/D” means the GI100 of the second compound could not be determined for both conditions and “-” means not tested.
(§5) Growth Inhibition (GI) as a measure of cell viability: The cell viability of vehicle was measured at the time of dosing the second agent (T0) and after seventy-two hours (T72). A GI reading of 0% represents no growth inhibition—cells treated with test compound as compared to T72 vehicle signals were measured. […] A GI 200% represents complete death of all cells in the culture well. Compounds reaching an activity plateau of GI 200% are considered cytotoxic. GI is calculated by applying the following test and equation: […]

SKM-1 (non-MLLr) cells [4] = assay: as above; type: cell-based, human; conditions: SKM-1 (non-MLLr); 300 nM EPZ-5676 pre-treatment vs DMSO
Experimental: as §3, §4, §5

[5] = tested on: OCI-AML-4 (MLL-ENL) cells; assay: as above; type: cell-based; conditions: OCI-AML-4 (MLL-ENL); 300 nM EPZ-5676 pre-treatment vs DMSO
Experimental: as §3, §4, §5

MOLM-13 (MLL-AF9) cells [6] = assay: Example 7 retest: EPZ-5676 pre-treatment, second compound 72 h, Cell Titer Glo, growth inhibition; type: cell-based, human; design: GI100: unit not given here; conditions: MOLM-13 (MLL-AF9)
SKM-1 (non-MLLr) cells [7] = assay: as above; type: cell-based, human; design: GI100: unit not given here; conditions: SKM-1 (non-MLLr)
[8] = tested on: OCI-AML-4 (MLL-ENL) cells; assay: as above; type: cell-based; conditions: OCI-AML-4 (MLL-ENL)
THP-1 (MLL-AF9) cells = assay: as above; type: cell-based; design: GI100: unit not given here; conditions: NRAS G12D
ML-2 (MLL-AF6) cells = assay: as above; type: cell-based; design: GI100: unit not given here; conditions: ML-2 (MLL-AF6), KRAS A146T (het)
RS4-11 (MLL-AF4) cells = assay: as above; type: cell-based; design: GI100: unit not given here; conditions: RS4-11 (MLL-AF4), Ras mutation status: None known, second compound, 72 h
[9] = 300 nM EPZ-5676 pre-treatment vs DMSO
[10] = KRAS K117N (homo), second compound, 72 h

## COc1cccc2c1C(=O)c1c(O)c3c(c(O)c1C2=O)C[C@@](O)(C(C)=O)C[C@@H]3O[C@H]1C[C@H](N)[C@H](O)[C@H](C)O1 [Daunorubicin]
MOLM-13 (MLL-AF9) cells [1]
  Antiproliferative combination effect after Compound A2 washout: maintained
  Antiproliferative combination effect with Compound A2: synergistic
MV4-11 (MLL-AF4) cells
  Antiproliferative combination effect after Compound A2 washout: maintained
  Antiproliferative combination effect with Compound A2: synergistic
[2]
  Combination effect with Compound A2 (Table 2): did not act synergistically
  Effect of Compound A2 on antiproliferative activity of the second agent: did not affect
EOL-1 (MLL-PTD) cells
  Combination effect with Compound A2 (Table 3): Synergy (key: Synergy: Drug synergy was statistically defined by CI values less than 1; Antagonistic: antagonism by CI>1; Additive: additive effect by CI equal to 1)
KOPM-88 (MLL-PTD) cells
  Combination effect with Compound A2 (Table 3): Synergy (key: Synergy: Drug synergy was statistically defined by CI values less than 1; Antagonistic: antagonism by CI>1; Additive: additive effect by CI equal to 1)

## Nc1ncn([C@@H]2O[C@H](CO)[C@@H](O)[C@H]2O)c(=O)n1 [Azacitidine]
MOLM-13 (MLL-AF9) cells [1]; MOLM-13 (MLL-AF9), 7 Day Cotreatment Model
  Combination effect with Compound A2 (Table 4): Strong Synergy
MOLM-13 (MLL-AF9) cells [1]; MOLM-13 MLL-AF9
  Combination effect with Compound A2 (Table 2): Synergy (Drug synergy was statistically defined by CI values less than 1)
MV4-11 (MLL-AF4) cells; MV4-11, 7 Day Cotreatment (Example 1)
  Combination effect with Compound A2: Synergy (A combination index less than one indicates synergy)
MV4-11 (MLL-AF4) cells; MV4-11 MLL-AF4
  Combination effect with Compound A2 (Table 2): Synergy (Drug synergy was statistically defined by CI values less than 1)
[2]; SKM-1 non-MLL-rearranged (Example 5)
  Effect of Compound A2 on antiproliferative activity of the second agent: no impact
EOL-1 (MLL-PTD) cells; EOL-1 (MLL-PTD)
  Combination effect with Compound A2 (Table 3): Synergy (Drug synergy was statistically defined by CI values less than 1)
KOPM-88 (MLL-PTD) cells; KOPM-88 (MLL-PTD)
  Combination effect with Compound A2 (Table 3): Synergy (Drug synergy was statistically defined by CI values less than 1)

## O=C(Nc1ccc2[nH]nc(-c3ccncc3)c2c1)[C@@H]1CCN(CC(=O)N2CCN(c3ccc(-c4ncccn4)cc3)CC2)C1 [SCH772984]
SKM-1 cells
  Summary of Combination Studies: SKM-1: Synergy (considered synergistic if the IC50 value of the second compound decreased by 2-fold or more when EPZ-5676 was added as compared to the DMSO control)
MOLM-13 (MLL-AF9) cells [3]
  Combination result with EPZ-5676, Primary screen: Synergy (considered synergistic if the GI100 (Growth inhibition 100) value of the second compound decreased by 2-fold or more when EPZ-5676 was added as compared to the DMSO control)
SKM-1 (non-MLLr) cells [4]
  Combination result with EPZ-5676, Primary screen: Synergy (considered synergistic if the GI100 (Growth inhibition 100) value of the second compound decreased by 2-fold or more when EPZ-5676 was added as compared to the DMSO control)
[5]
  Combination result with EPZ-5676, Primary screen: Synergy (considered synergistic if the GI100 (Growth inhibition 100) value of the second compound decreased by 2-fold or more when EPZ-5676 was added as compared to the DMSO control)
MOLM-13 (MLL-AF9) cells [6]; Homo sapiens, Ras mutation status: None known, second compound, 72 h
  GI50: 210 nM
MOLM-13 (MLL-AF9) cells [6]; 150 nM EPZ-5676 pre-treatment vs DMSO
  Combination result with EPZ-5676, Retest: Synergy (considered synergistic if the GI100 (Growth inhibition 100) value of the second compound decreased by 2-fold or more when EPZ-5676 was added as compared to the DMSO control)
MOLM-13 (MLL-AF9) cells [6]; Ras mutation status: None known
  Result (combination with EPZ-5676): Synergy (considered synergistic if the GI100 (Growth inhibition 100) value of the second compound decreased by 2-fold or more when EPZ-5676 was added as compared to the DMSO control)
MOLM-13 (MLL-AF9) cells [6]; Ras mutation status: None known, second compound, 72 h
  GI100: 0.53
SKM-1 (non-MLLr) cells [7]; [9]
  Combination result with EPZ-5676, Retest: Synergy (considered synergistic if the GI100 (Growth inhibition 100) value of the second compound decreased by 2-fold or more when EPZ-5676 was added as compared to the DMSO control)
SKM-1 (non-MLLr) cells [7]; KRAS K117N (homo)
  Result (combination with EPZ-5676): Synergy (considered synergistic if the GI100 (Growth inhibition 100) value of the second compound decreased by 2-fold or more when EPZ-5676 was added as compared to the DMSO control)
SKM-1 (non-MLLr) cells [7]; [10]
  GI50: 20 nM
  GI100: 0.086
[8]; [9]
  Combination result with EPZ-5676, Retest: Synergy (considered synergistic if the GI100 (Growth inhibition 100) value of the second compound decreased by 2-fold or more when EPZ-5676 was added as compared to the DMSO control)
[8]; NRAS Q61R (het)
  Result (combination with EPZ-5676): Synergy (considered synergistic if the GI100 (Growth inhibition 100) value of the second compound decreased by 2-fold or more when EPZ-5676 was added as compared to the DMSO control)
[8]; NRAS Q61R (het), second compound, 72 h
  GI50: 70 nM
THP-1 (MLL-AF9) cells
  GI50: 60 nM
  GI100: >10
ML-2 (MLL-AF6) cells
  Result (combination with EPZ-5676): Synergy (considered synergistic if the GI100 (Growth inhibition 100) value of the second compound decreased by 2-fold or more when EPZ-5676 was added as compared to the DMSO control)
ML-2 (MLL-AF6) cells; second compound, 72 h
  GI50: 40 nM
  GI100: 0.26
RS4-11 (MLL-AF4) cells; Homo sapiens
  GI50: 7.24 µM
RS4-11 (MLL-AF4) cells
  GI100: >10
